Tested on: CCL2
Test: ELISA of CCL2 levels in the supernatant of keratinocyte cultures treated with EGFR inhibitor PD168393 and/or HDAC inhibitors
Format: cell-based
Details: then PD168393 24 hours (FIG. 1)
Text: Results are expressed as the mean of three independent experiments ±SD.

Row | Structure (SMILES) | effect on PD168393-induced up-regulation of CCL2 levels (keratinocytes pre-treated with HDAC inhibitor 5 nM for 2 hours) | effect on PD168393-induced up-regulation of CCL2 levels (keratinocytes pre-treated with HDAC inhibitor for 2 hours)
1 | CC(/C=C/C(=O)NO)=C\[C@@H](C)C(=O)c1ccc(N(C)C)cc1 [trichostatin A] | suppressed | 
2 | CCCC(CCC)C(=O)O [valproic acid] |  | suppressed
